Measured values from patent US20230241188A1 (priority 2020, published 2023).
Read-outs that look alike come from different tables or passages of the source.

Assays:
[1] = target: SARS-CoV-2 (2019-nCoV) Envelope Recombinant Protein (Severe acute respiratory syndrome coronavirus 2, UniProt P0DTC4); type: biochemical
[2] = target: Recombinant SARS-CoV-2 spike protein (Severe acute respiratory syndrome coronavirus 2, UniProt P0DTC2); type: biochemical
envelope protein = envelope protein (Severe acute respiratory syndrome coronavirus 2, UniProt P0DTC4); type: biochemical, SARS-CoV-2
envelope protein, sequence (P0DTC4 whole entry): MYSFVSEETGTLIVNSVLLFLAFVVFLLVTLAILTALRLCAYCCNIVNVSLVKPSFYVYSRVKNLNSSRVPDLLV

[3] = tested on: SARS-COV-2 R209112 strain; test: SARS-CoV-2 inactivation test, Vero cells, optical microscope observation; type: cell-based
[4] = tested on: SARS-COV-2 R209112 strain; type: cell-based
[5] = tested on: wild-type (WT) SARS-CoV-2 strain (EPI_ISL_578176); type: cell-based
[6] = tested on: SARS-COV-2 R209112 strain

SARS-CoV-2 (2019-nCoV) Envelope Recombinant Protein, sequence (P0DTC4 whole entry): as above

## CC(=O)N[C@@H](CS)C(=O)O [Acetylcysteine, acetylcysteine]
[1]
  envelope protein band on SDS-PAGE gel: did not disintegrate the protein
[2]
  comparative reduction of disulphide bonds, DTT alone vs DTT with Acetylcysteine (slope ratio): 42%
  disulphide linkages reduced by Acetylcysteine: 58%
Envelope protein
  differential assay between Acetylcysteine and DTT (slope ratio): 60%
  disulphide bonds reduced by Acetylcysteine before the addition of DTT: 40%
[3]
  optical microscope observation of SARS-CoV-2 infection, V1: +
  optical microscope observation of SARS-CoV-2 infection, V2: +
  optical microscope observation of SARS-CoV-2 infection, V3: - and +
  optical microscope observation of SARS-CoV-2 infection, V4: -
  optical microscope observation of SARS-CoV-2 infection, V5: -
  therapeutic effect (cytopathic effect at 5 days), in words: did not show any therapeutic effect
[4]
  effect (cytopathic effect at 7 days), in words: did not show any effect
  optical microscope observation of SARS-CoV-2 infection, V1: +
  optical microscope observation of SARS-CoV-2 infection, V2: +
  optical microscope observation of SARS-CoV-2 infection, V3: -
  optical microscope observation of SARS-CoV-2 infection, V4: -
  optical microscope observation of SARS-CoV-2 infection, V5: -
[5]
  viral inhibition (CPE, optical and Neutral Red cell staining): no viral inhibition
[6]
  viral inactivation test (RNA extraction), Δlog, V1: 0.088 log
  viral inactivation test (RNA extraction), Δlog, V2: 0.224 log
Vero cells
  TOXICITY (optical microscope observation): Nil
BGM cells
  TOXICITY (optical microscope observation): Nil

## Bromelain
Vero cells
  TOXICITY (optical microscope observation): Nil
BGM cells
  TOXICITY (optical microscope observation): Nil
